Here are results for 3 compounds from patent US6596764B1, “Method of preparing diacetyl rhein” (Laboratoire Medidom S.A., priority 1991, dated 2003).

The subject of data set [1] is coxarthrosis and gonarthrosis. Briefly: Clinical double-blind study against naproxen with subsequent placebo after-treatment. In kind it is in vivo, human. To be noted: for improvement of all test parameters (pain and movement symptoms score, function limitation, compatibility) vs initial values: patients, 60 days. As for the experimental part:
1. The action of diacetylrhein was investigated in coxarthrosis and gonarthrosis in 95 (49/46) patients in a double-blind study against naproxen and subsequent placebo after-treatment. The dosage administered was 50 mg of diacetylrhein twice daily or 750 mg of naproxen daily. The period of treatment was 60 days after a 7 day wash-out phase. The subsequent placebo treatment extended over 60 days. Test parameters were the pain and movement symptoms according to a score scale, function limitation and compatibility.

Data set [2] concerns mucosal lesions in patients with osteoarthrosis. In words: Clinical randomised double blind double dummy compatibility study (oesophagogastroduodenoscopic findings). In kind it is in vivo, human. To be noted: after 4 weeks. As for the experimental part:
4. The action of diacetylrhein was investigated in 23 patients (12/11) with osteoarthrosis in a randomised double blind study using the “double dummy technique” (compatibility study). The dosage administered was 50 mg of diacetylrhein twice daily and 250 mg of naproxen three times daily. The period of treatment was 4 weeks. The test parameters were then oesophagogastroduodenoscopic findings before and after the therapy. Only patients with normal mucosal findings or with slight mucosal lesions (grade 1) were used in the study.

Data set [3] relates to arthrosis in rabbits induced by the intraarticular administration of vitamin A. Briefly: Vitamin A arthrosis in rabbits (chronic inflammation model, oral administration). In kind it is in vivo, rabbit (white New Zealanders). Conditions: for clinical signs of arthrosis (disturbances of movement, dragging of the rear legs): 7 rabbits. As for the experimental part:
The effectiveness of diacetylrhein was determined in chronic inflammation models after oral administration.
The following experimental models were used: cotton pellet granuloma in rats and arthrosis in rabbits induced by the intraarticular administration of vitamin A.
An arthrosis-like joint change was initiated in two groups each of 10 rabbits (white New Zealanders) by means of three intraarticular injections of 30,000 IU of vitamin A over the course of 9 days. 56 days later, 10 animals were treated with 3 mg of diacetylrhein/kg/day for 8 weeks.
Furthermore, the curative action of diacetylrhein was compared with that of acetylsalicylic acid on each of 7 rabbits which, after 6 days pre-treatment with three times 10,000 IU vitamin A and a 26 day treatment-free interval for 8 weeks, received either 5 mg of diacetylrhein/kg/day (experimental group), 15 mg of acetylsalicylic acid/kg/day (positive control group) or remained untreated (negative control group). […] In the negative control group, during the following 8 weeks, the clinical signs of a manifest arthrosis increased.

For a further data set, the system named is cotton pellet granuloma. Briefly: Cotton pellet granuloma in rats (chronic inflammation model, oral administration). In kind it is in vivo, rat. As for the experimental part: The effectiveness of diacetylrhein was determined in chronic inflammation models after oral administration. The following experimental models were used: cotton pellet granuloma in rats and arthrosis in rabbits induced by the intraarticular administration of vitamin A. a) Cotton pellet granuloma in rats. Young sexually mature rats (n=10) were given 25, 50 or 100 mg diacetylrhein/kg or 5 mg indomethacin/kg or 100 mg acetylsalicylic acid/kg daily for 5 days. A control group only treated with water was also used. Implantation of the pellets took place on the first day of treatment.

The next data set concerns gastric mucosa. Briefly: Gastric mucosa changes in the rat. In kind it is in vivo.
The next data set can be described thus: in vivo. Conditions: rat, mouse, cat.
Data set [4] deals with osteoarthrosis of the spine and of the knee. In words: Clinical open running study with control (physiotherapy). In kind it is in vivo, human. The protocol:
2. In an open running study with control, there was investigated the action of diacetylrhein against osteoarthrosis of the spine and of the knee in 70 patients (35/35). The dosage administered was 100 mg of diacetylrhein per day. The period of treatment was 60 days and the period of observation was 75 days. The test parameters were pain and movement limitation. The parameters were evaluated according to a score system. The control group comprised 35 patients in the case of which exclusively physiotherapeutic measures were carried out. Physiotherapy was also carried out in the diacetylrhein treatment group.

Another data set concerns localised arthrosis. In words: Clinical single blind crossover study against naproxen. In kind it is in vivo, human. To be noted: 20 patients. The protocol: 3. The action of diacetylrhein in the case of localised arthrosis in 20 patients was investigated in a single blind crossover study against naproxen. The patients were divided up into two groups: in the first group, initially 50 mg of diacetylrhein was administered twice daily for 20 days. Subsequently, there followed a three day wash-out phase and a further treatment with 250 mg of naproxen twice daily for a further 20 days. In the second group, the reverse sequence was used. The period of treatment was, in all, 43 days. The test parameters of pain, compression pain, passive movement pain, function limitation and swelling were determined according to a score system.

[5] abbreviates: 250 mg of naproxen three times daily.
[6] abbreviates: crossover study, 43 days in all.
The mark [7] stands for this setting: 50 mg of diacetylrhein twice daily.

For the compound `COc1ccc2cc([C@H](C)C(=O)O)ccc2c1` [naproxen, reference compound], in data set [1] (750 mg of naproxen daily, P<0.05), the “improvement of all test parameters (pain and movement symptoms score, function limitation, compatibility) vs initial values” is “statistically significant rate of improvement”. Moreover, in data set [2] (setting [5]), the “number of patients with mucosal lesions of grade 2, 3 and 4 (endoscopic findings)” value is on record as 5 patients; the “share of patients with mucosal lesions of grade 2, 3 and 4 (endoscopic findings)” value is listed as 50%.

Take `CC(=O)Oc1ccccc1C(=O)O` [acetylsalicylic acid, reference compound]: the “clinical signs of arthrosis (disturbances of movement, dragging of the rear legs)” value in data set [3] (15 mg of acetylsalicylic acid/kg/day for 8 weeks (positive control group)) is given as “improved significantly”.

Take `CC(=O)Oc1cccc2c1C(=O)c1c(OC(C)=O)cc(C(=O)O)cc1C2=O` [diacetylrhein]: in the data set with cotton pellet granuloma (rats (n=10), oral, 25, 50 or 100 mg diacetylrhein/kg daily for 5 days, in comparison with water-treated control group), the “Fresh and dry weights of the granuloma” value was “significant and clearly dosage-dependent reduction”. Moreover, in the data set with cotton pellet granuloma (rats, oral, 100 mg diacetylrhein/kg daily for 5 days vs 5 mg indomethacin/kg or 100 mg acetylsalicylic acid/kg), the “action on granuloma weights compared with reference drugs” value is on record as “corresponded to about the action of 5 mg indomethacin or of 100 mg acetylsalicylic acid”. The “weights of the thymus and adrenals” value with cotton pellet granuloma (rats, oral, daily treatment for 5 days) is given as “did not change”. For the same compound, the “clinical signs of arthrosis (disturbances of movement, dragging of the rear legs)” value in data set [3] (5 mg of diacetylrhein/kg/day for 8 weeks after 3 x 10,000 IU vitamin A and 26 day treatment-free interval) was “improved significantly”. The “macroscopically and microscopically recognisable joint changes” value in data set [3] (rabbits, 3 mg/kg/day for 8 weeks starting 56 days after 3 x 30,000 IU vitamin A, in comparison with control group) is on record as “significantly reduced”. Moreover, the “erosions of the gastric mucosa” value with gastric mucosa (single administration of 400 mg/kg) is recorded as “did not give rise to any erosions”. Also, the gastric mucosal damage result in the data set with gastric mucosa (twice daily 100 mg/kg over the course of 3 days) is given as “did not initiate any mucosal damage”. For the same compound, the 50% lethal dose (LD50) (commonly the dose expected to kill half of the subjects tested) in “in vivo” was 119 to 339 mg/kg. For the same compound, the LD50 in the data set “in vivo” (po) was in the range of 1900 to 7900 mg/kg. The “night pain and pressure pain after discontinuation, vs naproxen/placebo collective” value in data set [1] (30 days after discontinuation of diacetylrhein, 5% level) was “difference was also verified”. Further, in data set [1] (days 90 and 120, under subsequent placebo, P<0.01), the “spontaneous pain and active and passive movement pain after discontinuation, vs naproxen/placebo collective” value is “statistically significant superiority”. Besides, the “improvement of all test parameters (pain and movement symptoms score, function limitation, compatibility) vs initial values” in data set [1] (50 mg of diacetylrhein twice daily, P<0.01) is given as “statistically significant rate of improvement”. In addition, the “pain and movement limitation (score system), treatment group vs control group” value in data set [4] (35/35 patients, 100 mg per day plus physiotherapy for 60 days vs physiotherapy only) was “statistically significant superiority”. Further, the “effect after discontinuation of the treatment” value in data set [4] (period of observation 75 days, treatment 60 days, 100 mg per day) is “continuing therapeutic effect (hang-over effect)”. For the same compound, in the data set with localised arthrosis (setting [6]), the clinical laboratory parameters result is on record as “no changes” and the side effects entry is reported as “No noteworthy side effects”. For the same compound, the “pain, compression pain, passive movement pain, function limitation and swelling (score system), vs naproxen” value with localised arthrosis (crossover, 50 mg diacetylrhein twice daily 20 days vs 250 mg naproxen twice daily 20 days) is on record as “superiority”. Also, in data set [2] (setting [7]), the “number of cases with mucosal lesions of grade 2 (endoscopic findings)” value is listed as “one” and the “share of patients with mucosal lesions of grade 2 (endoscopic findings)” value is listed as 10%.
